{"source": "patent US7186743B2", "about": "“Substituted pyrazolyl compounds for the treatment of inflammation” (Pharmacia Corporation, priority 2001, dated 2007)", "biological_target": "T1, IKK2 (Homo sapiens, UniProt O14920)", "T1 construct": "made in house; host or cells: insect cells (baculovirus, pFastBac; SF9)", "T1 sequence (O14920 1-756)": "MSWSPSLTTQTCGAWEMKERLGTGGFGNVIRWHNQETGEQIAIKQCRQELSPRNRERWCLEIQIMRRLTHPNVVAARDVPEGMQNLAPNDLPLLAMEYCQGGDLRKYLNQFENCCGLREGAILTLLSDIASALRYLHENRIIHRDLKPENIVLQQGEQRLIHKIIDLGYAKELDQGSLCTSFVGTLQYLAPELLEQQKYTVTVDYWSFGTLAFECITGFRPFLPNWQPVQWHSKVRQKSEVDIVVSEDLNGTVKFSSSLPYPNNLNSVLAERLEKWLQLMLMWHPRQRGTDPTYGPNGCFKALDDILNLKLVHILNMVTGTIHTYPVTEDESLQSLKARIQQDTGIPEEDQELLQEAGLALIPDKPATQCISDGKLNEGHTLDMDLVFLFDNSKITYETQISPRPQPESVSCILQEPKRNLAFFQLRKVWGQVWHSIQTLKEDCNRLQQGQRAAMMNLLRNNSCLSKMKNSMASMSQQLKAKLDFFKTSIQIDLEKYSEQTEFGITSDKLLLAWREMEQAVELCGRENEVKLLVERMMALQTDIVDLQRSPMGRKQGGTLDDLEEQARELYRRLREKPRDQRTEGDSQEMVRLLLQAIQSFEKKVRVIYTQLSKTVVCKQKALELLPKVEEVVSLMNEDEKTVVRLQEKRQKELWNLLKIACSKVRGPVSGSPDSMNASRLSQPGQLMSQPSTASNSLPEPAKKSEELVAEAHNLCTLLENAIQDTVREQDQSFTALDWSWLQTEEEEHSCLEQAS", "assay": "IKKβ Resin Enzyme Assay (IKK2 resin)", "assay_type": "biochemical", "outline": "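Radiometric test: [γ-33P]ATP incorporation into a biotinylated IκBα peptide, 30 min at 25° C, pH 7.6 Hepes with MgCl2/MnCl2 and 1 μM cold ATP. Reaction is quenched with Dowex resin and the supernatant is counted. Kinase is FLAG-purified homodimeric recombinant human IKK2 from insect cells.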", "key": {"[1]": {"details": "Table 21, read-out: IKK2 Resin IC50"}, "[2]": {"details": "Table 6, read-out: IKK2 Resin IC 50"}, "[3]": {"details": "Table 2, read-out: IKK Resin IC50"}, "[4]": {"details": "Table 18, read-out: IKK2 Resin IC50"}, "[5]": {"details": "Table 3, read-out: IKK Resin IC50"}, "[6]": {"details": "Table 4, read-out: IKK2 Resin IC50"}, "[7]": {"details": "Table 14, read-out: IKK2 Resin IC50"}}, "note": "Structures can show the parent of a compound that is named as a salt. Where two headings read alike, the source gives them in different places.", "data": [{"smiles": "CN(C)S(=O)(=O)c1ccc(-n2nc(C(N)=O)c3c2-c2cc(NS(C)(=O)=O)ccc2CC3)cc1", "note": "[Example 426, 1-{4-[(dimethylamino)sulfonyl]phenyl}-8-[(methylsulfonyl)amino]-4,5-dihydro-1H-benzo[g]indazole-3-carboxamide]", "values": [{"measurement": "IC50", "setting": "[1]", "value": "≤ 1000", "unit": "nM"}]}, {"smiles": "CSc1ccc(Cl)c(C(=O)Nc2ccc3c(c2)-c2c(c(C(N)=O)nn2-c2ccc(F)cc2)CC3)c1", "note": "[Example 235, 8-{[2-chloro-5-(methylthio)benzoyl]amino}-1-(4-fluorophenyl)-4,5-dihydro-1H-benzo[g]indazole-3-carboxamide]", "values": [{"measurement": "IC50", "setting": "[2]", "value": "≤ 1000", "unit": "nM"}]}, {"smiles": "NC(=O)c1nn(-c2ccc(F)cc2)c2c1CCc1ccc(NC(=O)c3cc(Cl)cnc3Cl)cc1-2", "note": "[Example 223, 8-{[(2,5-dichloropyridin-3-yl)carbonyl]amino}-1-(4-fluorophenyl)-4,5-dihydro-1H-benzo[g]indazole-3-carboxamide]", "values": [{"measurement": "IC50", "setting": "[2]", "value": "≤ 1000", "unit": "nM"}]}, {"smiles": "CNC(=O)/C=C/c1ccc(-n2nc(C(N)=O)c3c2-c2cc(NC(=O)c4cccnc4Cl)ccc2CC3)cc1", "note": "[Example 301, 8-{[(2-chloropyridin-3-yl)carbonyl]amino}-1-{4-[(1E)-3-(methylamino)-3-oxoprop-1-enyl]phenyl}-4,5-dihydro-1H-benzo[g]indazole-3-carboxamide]", "values": [{"measurement": "IC50", "setting": "Table 11, read-out: IKK2 Resin IC50", "value": "≤ 1000", "unit": "nM"}]}, {"smiles": "NC(=O)c1nn(-c2ccc(F)cc2)c2c1CCc1ccc(NC(=O)c3cccc([N+](=O)[O-])c3Cl)cc1-2", "note": "[Example 241, 8-[(2-chloro-3-nitrobenzoyl)amino]-1-(4-fluorophenyl)-4,5-dihydro-1H-benzo[g]indazole-3-carboxamide]", "values": [{"measurement": "IC50", "setting": "[2]", "value": "≤ 1000", "unit": "nM"}]}, {"smiles": "CN(C)CC(=O)Nc1ccc(Cl)c(C(=O)Nc2ccc3c(c2)-c2c(c(C(N)=O)nn2-c2ccc(S(C)(=O)=O)cc2)CC3)c1", "note": "[Example 119, 8-({2-chloro-5-[(N,N-dimethylglycyl)amino]benzoyl}amino)-1-[4-(methylsulfonyl)phenyl]-4,5-dihydro-1H-benzo[g]indazole-3-carboxamidehydrochloride]", "values": [{"measurement": "IC50", "setting": "[3]", "value": "≤ 1000", "unit": "nM"}]}, {"smiles": "CS(=O)(=O)c1ccc(C(=O)Nc2ccc3c(c2)-c2c(c(C(N)=O)nn2-c2ccc(F)cc2)CC3)c(Cl)c1", "note": "[Example 226, 8-{[2-chloro-4-(methylsulfonyl)benzoyl]amino}-1-(4-fluorophenyl)-4,5-dihydro-1H-benzo[g]indazole-3-carboxamide]", "values": [{"measurement": "IC50", "setting": "[2]", "value": "≤ 1000", "unit": "nM"}]}, {"smiles": "NC(=O)c1nn(-c2ccc(F)cc2)c2c1CCc1ccc(NC(=O)c3ccc(C(F)(F)F)nc3Cl)cc1-2", "note": "[Example 234, 8-({[2-chloro-6-(trifluoromethyl)pyridin-3-yl]carbonyl}amino)-1-(4-fluorophenyl)-4,5-dihydro-1H-benzo[g]indazole-3-carboxamide]", "values": [{"measurement": "IC50", "setting": "[2]", "value": "≤ 1000", "unit": "nM"}]}, {"smiles": "CN(C)S(=O)(=O)c1ccc(-n2nc(C(N)=O)c3c2-c2cc(NC(=O)c4ccccc4Cl)ccc2CC3)cc1", "note": "[Example 427, 8-[(2-chlorobenzoyl)amino]-1-{4-[(dimethylamino)sulfonyl]phenyl}-4,5-dihydro-1H-benzo[g]indazole-3-carboxamide]", "values": [{"measurement": "IC50", "setting": "[1]", "value": "≤ 1000", "unit": "nM"}]}, {"smiles": "CS(=O)(=O)c1ccc(-n2nc(C(N)=O)c3c2-c2cc(NC(=O)c4cccc(F)c4F)ccc2CC3)cc1", "note": "[Example 101, 8-[(2,3-difluorobenzoyl)amino]-1-[4-(methylsulfonyl)phenyl]-4,5-dihydro-1H-benzo[g]mdazole-3-carboxamide]", "values": [{"measurement": "IC50", "setting": "[3]", "value": "≤ 1000", "unit": "nM"}]}, {"smiles": "NC(=O)c1nn(-c2ccsc2)c2c1CCc1ccc(NC(=O)c3ccncc3Cl)cc1-2", "note": "[Example 383, 8-[(3-chloroisonicotinoyl)amino]-1-thien-3-yl-4,5-dihydro-1H-benzo[g]indazole-3-carboxamide]", "values": [{"measurement": "IC50", "setting": "Table for Examples 381-385 (headed TABLE 14), read-out: IKK2 Resin IC50", "value": "≤ 1000", "unit": "nM"}]}, {"smiles": "CS(=O)(=O)c1ccc(-n2nc(C(N)=O)c3c2-c2cc(NC(=O)c4cc(N=[N+]=[N-])ccc4[N+](=O)[O-])ccc2CC3)cc1", "note": "[Example 121, 8-[(5-azido-2-nitrobenzoyl)amino]-1-[4-(methylsulfonyl)phenyl]-4,5-dihydro-1H-benzo[g]indazole-3-carboxamide]", "values": [{"measurement": "IC50", "setting": "[3]", "value": "≤ 1000", "unit": "nM"}]}, {"smiles": "CCS(=O)(=O)c1ccc(-n2nc(C(N)=O)c3c2-c2cc(NC(=O)c4ccccc4Cl)ccc2CC3)cc1", "note": "[Example 395, 8-[(2-chlorobenzoyl)amino]-1-[4-(ethylsulfonyl)phenyl]-4,5-dihydro-1H-benzo[g]indazole-3-carboxamide]", "values": [{"measurement": "IC50", "setting": "[4]", "value": "≤ 1000", "unit": "nM"}]}, {"smiles": "NC(=O)c1nn(-c2ccc(OCCN3CCOCC3)cc2)c2c1CCc1ccc(NC(=O)c3ccccc3Cl)cc1-2", "note": "[Example 264, 8-[(2-chlorobenzoyl)amino]-1-[4-(2-morpholin-4-ylethoxy)phenyl]-4,5-dihydro-1H-benzo[g]indazole-3-carboxamide]", "values": [{"measurement": "IC50", "setting": "Table 9, read-out: IKK2 Resin IC50", "value": "≤ 1000", "unit": "nM"}]}, {"smiles": "COc1cccc(CC(=O)Nc2ccc3c(c2)-c2c(c(C(N)=O)nn2-c2ccc(S(C)(=O)=O)cc2)CC3)c1", "note": "[Example 157, 8-{[(3-methoxyphenyl)acetyl]amino}-1-[4-(methylsulfonyl)phenyl]-4,5-dihydro-1H-benzo[g]indazole-3-carboxamide]", "values": [{"measurement": "IC50", "setting": "[5]", "value": "≤ 1000", "unit": "nM"}]}, {"smiles": "CC1(C)Cc2c(C(N)=O)nn(-c3ccc4c(c3)OCO4)c2-c2cc(NC(=O)c3ccncc3Cl)ccc21", "note": "[Example 435, 1-(1,3-benzodioxol-5-yl)-8-[(3-chloroisonicotinoyl)amino]-5,5-dimethyl-4,5-dihydro-1H-benzo[g]indazole-3-carboxamide]", "values": [{"measurement": "IC50", "setting": "Table 22, read-out: IKK2 Resin IC50", "value": "≤ 1000", "unit": "nM"}]}, {"smiles": "NC(=O)c1nn(-c2ccc3c(c2)OCO3)c2c1CCc1ccc(NC(=O)c3ccc(Cl)cc3Cl)cc1-2", "note": "[Example 195, 1-(1,3-benzodioxol-5-yl)-8-[(2,4-dichlorobenzoyl)amino]-4,5-dihydro-1H-benzo[g]indazole-3-carboxamide]", "values": [{"measurement": "IC50", "setting": "[6]", "value": "≤ 1000", "unit": "nM"}]}, {"smiles": "NC(=O)c1nn(-c2ccc3c(c2)OCO3)c2c1CCc1ccc(NC(=O)c3ccc(C(F)(F)F)nc3Cl)cc1-2", "note": "[Example 181, 1-(1,3-benzodioxol-5-yl)-8-({[2-chloro-6-(trifluoromethyl)pyridin-3-yl]carbonyl}amino)-4,5-dihydro-1H-benzo[g]indazole-3-carboxamide]", "values": [{"measurement": "IC50", "setting": "[6]", "value": "≤ 1000", "unit": "nM"}]}, {"smiles": "COc1cc(C(=O)Nc2ccc3c(c2)-c2c(c(C(N)=O)nn2-c2ccc(S(C)(=O)=O)cc2)CC3)c([N+](=O)[O-])cc1OC", "note": "[Example 150, 8-[(4,5-dimethoxy-2-nitrobenzoyl)amino]-1-[4-(methylsulfonyl)phenyl]-4,5-dihydro-1H-benzo[g]indazole-3-carboxamide]", "values": [{"measurement": "IC50", "setting": "[5]", "value": "≤ 1000", "unit": "nM"}]}, {"smiles": "NC(=O)c1nn(-c2ccc([N+](=O)[O-])cc2)c2c1CCc1ccc(NC(=O)c3ccccc3Cl)cc1-2", "note": "[Example 324, 8-[(2-chlorobenzoyl)amino]-1-(4-nitrophenyl)-4,5-dihydro-1H-benzo[g]indazole-3-carboxamide]", "values": [{"measurement": "IC50", "setting": "[7]", "value": "≤ 1000", "unit": "nM"}]}, {"smiles": "CCS(=O)(=O)c1ccc(-n2nc(C(N)=O)c3c2-c2cc(NC(=O)c4cc(NC(=O)OC(C)(C)C)ccc4Cl)ccc2CC3)cc1", "note": "[Example 397, tert-butyl 3-[({3-(aminocarbonyl)-1-[4-(ethylsulfonyl)phenyl]-4,5-dihydro-1H-benzo[g]indazol-8-yl}amino)carbonyl]-4-chlorophenylcarbamate]", "values": [{"measurement": "IC50", "setting": "[4]", "value": "≤ 1000", "unit": "nM"}]}, {"smiles": "NC(=O)c1nn(-c2cccc(F)c2)c2c1CCc1ccc(NC(=O)c3ccccc3Cl)cc1-2", "note": "[Example 339, 8-[(2-chlorobenzoyl)amino]-1-(3-fluorophenyl)-4,5-dihydro-1H-benzo[g]indazole-3-carboxamide]", "values": [{"measurement": "IC50", "setting": "[7]", "value": "≤ 1000", "unit": "nM"}]}]}
